Measurements from the NIST ThermoML archive (doi:10.1016/j.jct.2010.06.009).

Assay: activity coefficient (dimensionless); of the first substance listed, at infinite dilution; xn = mol fraction of the nth substance listed
Settings: 101 kPa, Liquid, Chromatography, x1 = 0

CC1CCCCC1 [methylcyclohexane] + CCCCC[n+]1ccccc1.O=S(=O)([N-]S(=O)(=O)C(F)(F)F)C(F)(F)F
Settings | activity coefficient
303.1 K | 10.2
312.7 K | 9.39
323.4 K | 8.48
333.3 K | 7.64
343.3 K | 6.84
353.3 K | 6.08

CC1CCCCC1 [methylcyclohexane] + CCCC[n+]1ccccc1.O=S(=O)([N-]S(=O)(=O)C(F)(F)F)C(F)(F)F
Settings | activity coefficient
302.8 K | 14.1
312.4 K | 12.7
323.2 K | 11.6
333.1 K | 10.1
343.3 K | 8.44
353.4 K | 7.2

CC1CCCCC1 [methylcyclohexane] + CC[n+]1ccccc1.O=S(=O)([N-]S(=O)(=O)C(F)(F)F)C(F)(F)F
Settings | activity coefficient
302.8 K | 17.8
313.3 K | 15
323.1 K | 12.8
333 K | 10.8
342.9 K | 9.01
353 K | 7.49

CCCCCCCCC [nonane] + CCCCC[n+]1ccccc1.O=S(=O)([N-]S(=O)(=O)C(F)(F)F)C(F)(F)F
Settings | activity coefficient
303.2 K | 36
312.7 K | 33.3
323.4 K | 30.2
333.3 K | 27.3
343.3 K | 24.2
353.3 K | 21.4

CCCCCCCCC [nonane] + CCCC[n+]1ccccc1.O=S(=O)([N-]S(=O)(=O)C(F)(F)F)C(F)(F)F
Settings | activity coefficient
303.1 K | 52.3
312.6 K | 50
323.3 K | 45.6
333.3 K | 38.6
343.3 K | 33.3
353.4 K | 28.1

CCCCCCCCC [nonane] + CC[n+]1ccccc1.O=S(=O)([N-]S(=O)(=O)C(F)(F)F)C(F)(F)F
Settings | activity coefficient
302.8 K | 86.1
313.3 K | 74.3
323.1 K | 63.4
333 K | 51.7
342.9 K | 42.2
353 K | 33.8

C=CCCCCCC [oct-1-ene] + CCCCC[n+]1ccccc1.O=S(=O)([N-]S(=O)(=O)C(F)(F)F)C(F)(F)F
Settings | activity coefficient
303 K | 14.2
312.6 K | 13.2
322.6 K | 12.2
333.4 K | 11
343.4 K | 9.95
353.4 K | 9.08

C=CCCCCCC [oct-1-ene] + CCCC[n+]1ccccc1.O=S(=O)([N-]S(=O)(=O)C(F)(F)F)C(F)(F)F
Settings | activity coefficient
302.5 K | 22.3
313 K | 19.7
323.2 K | 18.4
332.8 K | 15.7
343 K | 13.6
352.9 K | 11.9

C=CCCCCCC [oct-1-ene] + CC[n+]1ccccc1.O=S(=O)([N-]S(=O)(=O)C(F)(F)F)C(F)(F)F
Settings | activity coefficient
302.6 K | 36.6
313.2 K | 31.5
323.2 K | 27.2
332.8 K | 23.7
342.9 K | 19.8
353 K | 16.7

CCCCCCCC [octane] + CCCCC[n+]1ccccc1.O=S(=O)([N-]S(=O)(=O)C(F)(F)F)C(F)(F)F
Settings | activity coefficient
303.2 K | 25
312.7 K | 22.8
323.4 K | 20.3
333.3 K | 18
343.3 K | 15.7
353.3 K | 13.7

CCCCCCCC [octane] + CCCC[n+]1ccccc1.O=S(=O)([N-]S(=O)(=O)C(F)(F)F)C(F)(F)F
Settings | activity coefficient
302.7 K | 35.4
312.5 K | 32.2
323.2 K | 29
333.3 K | 23.9
343.3 K | 20.4
353.4 K | 16.8

CCCCCCCC [octane] + CC[n+]1ccccc1.O=S(=O)([N-]S(=O)(=O)C(F)(F)F)C(F)(F)F
Settings | activity coefficient
302.8 K | 52.9
313.3 K | 43.5
323.1 K | 36
333 K | 29.1
342.9 K | 23.4
353 K | 18.5

CCCCC [pentane] + CCCCC[n+]1ccccc1.O=S(=O)([N-]S(=O)(=O)C(F)(F)F)C(F)(F)F
Settings | activity coefficient
303.3 K | 5.03
312.7 K | 4.17
323.4 K | 3.42
333.3 K | 2.89
343.3 K | 2.41
353.3 K | 2.07

CCCCC [pentane] + CCCC[n+]1ccccc1.O=S(=O)([N-]S(=O)(=O)C(F)(F)F)C(F)(F)F
Settings | activity coefficient
302.8 K | 5.66
312.4 K | 4.83
323.2 K | 3.92
333 K | 3.44
343.4 K | 2.66
353.4 K | 2.24

CCCCC [pentane] + CC[n+]1ccccc1.O=S(=O)([N-]S(=O)(=O)C(F)(F)F)C(F)(F)F
Settings | activity coefficient
302.7 K | 5.79
313.3 K | 4.5
323 K | 3.59
333 K | 2.92
342.9 K | 2.36
352.9 K | 1.95

CCCO [propan-1-ol] + CCCCC[n+]1ccccc1.O=S(=O)([N-]S(=O)(=O)C(F)(F)F)C(F)(F)F
Settings | activity coefficient
302.8 K | 2.53
313.6 K | 2.23
323.4 K | 2.02
333.3 K | 1.84
343.3 K | 1.65
353.3 K | 1.49

CCCO [propan-1-ol] + CCCC[n+]1ccccc1.O=S(=O)([N-]S(=O)(=O)C(F)(F)F)C(F)(F)F
Settings | activity coefficient
303.4 K | 3.31
313.3 K | 2.82
323.2 K | 2.52
333.1 K | 2.25
343.1 K | 2.03
353 K | 1.84

CCCO [propan-1-ol] + CC[n+]1ccccc1.O=S(=O)([N-]S(=O)(=O)C(F)(F)F)C(F)(F)F
Settings | activity coefficient
302.5 K | 3.56
313.1 K | 3.18
323 K | 2.85
332.9 K | 2.57
342.9 K | 2.29
353 K | 2.06

Cc1ccccc1 [toluene] + CCCCC[n+]1ccccc1.O=S(=O)([N-]S(=O)(=O)C(F)(F)F)C(F)(F)F
Settings | activity coefficient
303.1 K | 1.28
312.8 K | 1.3
323.3 K | 1.33
333.3 K | 1.34
343.3 K | 1.36
353.5 K | 1.36

Cc1ccccc1 [toluene] + CCCC[n+]1ccccc1.O=S(=O)([N-]S(=O)(=O)C(F)(F)F)C(F)(F)F
Settings | activity coefficient
302.8 K | 1.8
312.6 K | 1.82
323.3 K | 1.83
333.2 K | 1.83
343.2 K | 1.85
353.3 K | 1.86

Cc1ccccc1 [toluene] + CC[n+]1ccccc1.O=S(=O)([N-]S(=O)(=O)C(F)(F)F)C(F)(F)F
Settings | activity coefficient
303.6 K | 2.08
313.1 K | 2.09
323.2 K | 2.1
333.2 K | 2.11
343 K | 2.12
353.3 K | 2.13
